Laboratory results: patent US7005274B1, “Methods and compositions for diagnosing and treating arthritic disorders and regulating bone mass” (MIGENIX Corp., priority 1999, dated 2006)

What was measured:
[1] = test system: chondrocytes; assay: Collagen synthesis, [3H]-proline labeling, collagenase-sensitive protein; type: cell-based, human; details: 72 hours after addition; 0.025 mM antimycin A or non-lethal dose of oligomycin
Procedure: Collagen production was measured by tritiated proline ([^3H]-proline) biosynthetic protein labeling and measuring of collagenase-sensitive protein production (FIG. 2). Articular chondrocytres or TC28 cells (5×10^5 cells) were plated in 5 ml medium made 0.025 mM in antimycin A (or 0.02 μg/ml oligomycin, see next Example) by addition of the indicated agent every 24 hours. After the mitochondrial inhibitors were added, the cells were cultured for a further 48 hours. Medium was then removed and replaced with serum-free medium containing 5 μl/ml of [^3H]-proline, 50 μg/ml ascorbate and 100 μg/ml β-aminoproprionitrile, and incubation continued for an additional 8 hours.
Medium was then collected and precipitated with 15% trichloroacetic acid (TCA). Cells were extracted in 1 M NaCl, 1 mM N-ethylmaleimide, 0.2 mM phenylmethylsulfonyl fluoride, 0.75 mM EDTA and then precipitated with 15% TCA. The precipitates were washed 3 times with 5% TCA and once with 5% TCA containing 0.5% tannic acid. The pellet was dissolved and resuspended in 0.05 M Tris-HCl, pH 7.6, 5 mM CaCl2, 2.5 mM N-ethylmaleimide. Collagenase-sensitive protein per μg total protein was determined by incubation for 2 hours with 80 units/ml of collagenase, followed by addition of 10% TCA/0.5% tannic acid, and addition of the supernatant to scintillation fluid for standard scintillation counting in the tritium channel.

[2] = test system: alkaline phosphatase; assay: PPi-degrading alkaline phosphatase activity (control study); type: cell-based; details: not shown
[3] = test system: articular chondrocytes and TC28 cells; assay: Cell viability by trypan blue dye exclusion; type: cell-based, human; details: 0.025 mM antimycin A or 0.02 μM oligomycin, 72 hours
Procedure: Nonlethal but mitochondrial effective doses of antimycin A were determined as follows. Progressively higher concentrations of antimycin A (Sigma Chemical Co., St. Louis, Mo.) were added to cultured articular condrocytes and TC-28 cells. Cell proliferation was measured by incorporation of fluorogenic H33258 (Calbiochem, La Jolla, Calif.) essentially according to the manufacturer's instructions, and cell viability was assessed by trypan blue dye exclusion (Medzihradsky et al., Biochem. Med. 13:164–177, 1975), essentially according to the instructions of the manufacturer (Sigma).
The objective of these studies was to find, if possible, a level of antimycin A that depressed total cellular ATP levels without causing more than 10% loss of viability. In FIG. 1A, articular chondrocytes or TC28 cells (5×10^5) in 5 ml were studied in triplicate in the presence of antimycin (or oligomycin, see next Example) at the indicated concentrations, administered every 24 hours for a total of 72 hours, and total intracellular ATP concentrations were determined as described above. […]

[4] = test system: TC28 cells; assay: Intracellular ATP, luciferase assay; type: cell-based; details: 10 ng/ml TGFβ, 0.025 mM antimycin A, 0.02 μg/ml oligomycin; mean ± SD
Procedure: (§1) Levels of total cellular ATP were measured by a modification of luciferase-based assays known in the art (Lin et al., Anal. Biochem. 24:531–540, 1968); related assays and modifications may alternatively be used (see, e.g., Turman et al., In Vitro Cell. Dev. Biol. Anim. 32:1–4, 1996, for an assay format that uses a fluorescent plate reader). In brief, 2×10^6 cells were washed and pelleted in 10 ml phosphate-buffered saline (PBS). The cell pellets were snap-frozen in a dry ice/ethanol bath, after which […] of 0.2 M HCl was added, followed by 0.3 ml of 2 mM glycine (pH 9.0). Samples were heated at 100° C. for five minutes, then placed on ice. A standard curve was developed using 0 to 500 pmol of purified ATP (disodium salt). One hundred (100) μl of the cell extract, or purified ATP standard, was added to an equal volume of the ATP assay mixture (containing MgSO4, DTT, EDTA, luciferase and luciferin, all from the Sigma Bioluminescence Assay Kit and all diluted 1:25). Following a 5 second incubation and 15 second integration, samples were read on a TD-20/20 Luminometer (Turner Designs, Sunnyvale, Calif.).

[5] = test system: Articular Chondrocytes; assay: Intracellular ATP, luciferase assay; type: cell-based, human; details: 10 ng/ml TGFβ, 0.025 mM antimycin A, 0.02 μg/ml oligomycin; mean ± SD
Procedure: Human articular cartilage chondrocytes were obtained by collagenase digestion of articular cartilage samples, and subsequent monolayer culture, essentially as described by Terkeltaub et al. (Arthritis Rheum. 41:2152–2164, 1998). The starting material for these primary cultures was human articular cartilage excised during surgical joint replacement, or obtained at autopsy from normal or osteoarthritic joints. The articular chondrocytes were grown in Dulbecco's modified Eagle's Medium with high glucose (DMEM high glucose, Life Technologies, Inc. Grand Island, N.Y.) with 10% fetal calf serum (FCS), 1% glutamine, 100 U/ml penicillin and 50 μg/ml streptomycin (all reagents from Sigma, St. Louis, Mo., unless otherwise noted). Typically, only first passage cells were used in the studies described herein.
as §1, with “Calif.). […]” for “Calif.).”

## CC[C@H]1/C=C/C=C/C[C@@H](C)[C@H](O)[C@@](C)(O)C(=O)[C@@H](C)[C@H](O)[C@@H](C)C(=O)[C@@H](C)[C@H](O)[C@@H](C)/C=C/C(=O)O[C@@H]2[C@H](C)[C@H](CC1)O[C@]1(CC[C@H](C)[C@H](C[C@@H](C)O)O1)[C@H]2C [oligomycin]
[1]
  depression of collagen synthesis: more than 50%
[2]
  PPi-degrading alkaline phosphatase activity: neither agent altered PPi-degrading alkaline phosphatase activity
[3]
  loss of viability: less than 10%
[4]
  ATP (pmoles/μg DNA):TC28 cells: 198.6 ± 3.7 pmoles/μg DNA
[5]
  ATP (pmoles/μg DNA): Articular Chondrocytes: 221.2 ± 14.0 pmoles/μg DNA

## antimycin A
[1]
  depression of collagen synthesis: more than 50%
[2]
  PPi-degrading alkaline phosphatase activity: neither agent altered PPi-degrading alkaline phosphatase activity
[3]
  loss of viability: less than 10%
[4]
  ATP (pmoles/μg DNA):TC28 cells: 69.78 ± 4.0 pmoles/μg DNA
[5]
  ATP (pmoles/μg DNA): Articular Chondrocytes: 93.73 ± 5.9 pmoles/μg DNA
